Results on two compounds are retold here after the NIST ThermoML archive (doi:10.1021/je0602521).

Each structure is given as a SMILES string. ± gives the expanded uncertainty stated by the source.

Data set [1] is described as follows: refractive index (Na D-line) (dimensionless). The following applies: 298.15 K; 101.33 kPa; Liquid; Standard Abbe refractometry.
For data set [2] the following is noted: 298.15 K; 101.33 kPa; Liquid.

Broadly, the refractive index is a measure of how strongly the sample bends light. For the compound `CCO` [ethanol], the refractive index in data set [1] stood at 1.35941 ± 0.00068. By mass density is commonly meant the mass of a sample divided by its volume. Take `CO` [methanol]: in data set [2], the mass density was 786.46 ± 0.26 kg/m3.
